Test results from the METLIN SMRT retention time set (Domingo-Almenara et al. 2019).

Assay: gradient 5% acetonitrile 3 min, to 50% in 2 min, to 85% in 15 min, held 3 min, 100 µL/min
Settings: column: Zorbax Extend-C18 2.1 x 50 mm; eluents: water / acetonitrile, 0.1% formic acid
Method in brief: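 Retention times come from adduct peaks that were picked computationally and then checked by hand. The standards, pure and pooled in mixtures of ~100 molecules, were run on a Zorbax Extend-C18 column (2.1 × 50 mm, 1.8 μm) at 100 μL/min with water and acetonitrile, each with 0.1% formic acid. Detection was by quadrupole time-of-flight mass spectrometry in positive and negative ionization mode, with a dead volume of 40 μL and a dwell volume of 900 μL.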

RP-LC retention time [s] | Structure (SMILES)
1150 | O=C(CN1CCN(C(=O)c2cc3cn(C4CCCC4)cc3s2)CC1)N1CCCC1
607 | Cn1c(C(=O)NCc2ccccn2)cc2c(=O)oc3ccccc3c21
1210 | CCOc1ccc(-c2nc(-c3cccc(-c4ccnn4C)c3)no2)cc1OCC
874 | CN(CCc1noc(-c2ccc(F)cc2)n1)C(=O)Nc1ccc(F)cc1F
968 | CCSc1nnc(-c2nn(C)c3c2CN(S(=O)(=O)c2ccc(OC)c(Cl)c2)CC3)n1CC
817 | O=C(CN1C(=O)c2cccnc2Sc2ccccc21)NCCc1c[nH]c2ccc(Cl)cc12
728 | COCCn1cc(CCNC(=O)Nc2cccc(C)c2)c2cccnc21
619 | CCCN1CCN(C(=O)c2sc(-c3cn(C(C)C)c4ncccc34)nc2C)CC1
665 | CCNc1cc(N2CCC(CCC(=O)NCc3cccc(F)c3)CC2)ncn1
886 | CC(C)Cc1nc2nccc(-c3ccc(F)cc3)n2n1
1180 | Cc1ccc(-c2nc(Nc3ccc(Cl)cc3Cl)sc2CC(=O)O)cc1
652 | COc1cccc2cc(C(=O)NC3C=CS(=O)(=O)C3)oc12 (stereo not given)
770 | CCOc1ccc(NC(=O)C2CCCN2S(=O)(=O)c2cc3c(cc2C)NC(=O)CO3)cc1 (stereo not given)
872 | COCC(=O)Nc1cnc(-c2cccc(Cl)c2)nc1
831 | Brc1ccc(OCc2nnc3sc(-c4cccnc4)nn23)cc1
568 | COc1ccc2[nH]c(=O)c(CCC(=O)N3CCN(c4ccccn4)CC3)cc2c1
1050 | COc1ccc(Nc2n[nH]nc2C(=O)Nc2ccccc2Br)cc1
798 | CC(=O)N1c2ccc(S(=O)(=O)NCCOc3ccc(F)cc3)cc2CC1C (stereo not given)
675 | CC(O)(CNC(=O)c1cnc2ccccc2n1)c1ccco1 (stereo not given)
789 | COc1ccc2nc(-c3ccc(F)c(NC(=O)Nc4ccccc4C)c3)cn2n1
836 | Cc1cccc(NC(=O)N2CCC(n3cnc4ccc(C)cc4c3=O)CC2)c1
886 | COc1cc(NS(=O)(=O)c2ccc(-c3nnc(C4CCC4)o3)o2)cc(OC)c1
622 | CCN1CN=C(Nc2nc(C)c3cc(OC)ccc3n2)NC1

RP-LC retention time [s] | Structure (SMILES)
1010 | CC(C)NC(=O)N1CC(Oc2cccc(-c3nc(-c4ccccc4)no3)c2)C1
1130 | Cc1ccc(C)c(-n2ccn(Cc3nc(-c4ccc(C(C)(C)C)cc4)no3)c(=O)c2=O)c1
795 | CCC(C)C(=O)N1CCCN(C2=NS(=O)(=O)C(c3ccc(F)cc3)=C2C)CC1 (stereo not given)
754 | O=C(c1cnn2cccnc12)N1CCCC1c1cccc(F)c1 (stereo not given)
757 | COc1cccc(CNC(=O)Cn2c(=O)c(CCC(=O)NCC(C)C)nc3ccccc32)c1OC
988 | COC(=O)c1ccc(OC)c(Cn2cnc3c(-c4ccccc4)csc3c2=O)c1
808 | Cc1ccc(Cn2c(=O)n(CCNC(=O)c3cccs3)c3ncccc32)cc1
716 | COC(=O)Nc1csc2c1NC(=O)CCCC2
795 | O=C(C1CCCN(c2nc3cccnc3s2)C1)N1CCCCCC1 (stereo not given)
843 | N#Cc1cccc(C(=O)N2CCOc3ccccc32)c1
679 | CCS(=O)(=O)N1CCCc2cc(C(=O)N3CCOCC3)ccc21
621 | CCOCCCNC(=O)c1c(OCC)cc(=O)n2c1CCCCC2
567 | CCCN(CC1CC1)C(=O)c1nn(CCOC)c2c1CNCC2
728 | CN(C)c1cccc(C(=O)Nc2cc(-c3cccnc3)no2)c1
542 | O=C(c1ccccn1)N1CCCC(c2n[nH]c(C3CC3)n2)C1 (stereo not given)
932 | CCOC(=O)c1c(S(=O)(=O)N2CCC(C(=O)Nc3cccc(Cl)c3)CC2)c(C)n(C)c1C
608 | Cc1cc(=O)n(CC(=O)Nc2cc(F)ccc2C)c(N)n1
667 | Cc1cccc(N2CCN(C(=O)C3CCN(S(=O)(=O)c4cn(C)c(C)n4)CC3)CC2C)c1 (stereo not given)
930 | Cc1nn(CC(=O)NC2CCCCCC2)c(=O)c2nc(-c3ccccc3)sc12
670 | CC1C(=O)NCCN1C(=O)c1ccc(Oc2ccccc2)cc1 (stereo not given)
935 | CCCC(C)C(=O)N1CCCN(C2=NS(=O)(=O)C(c3ccc(CC)cc3)=C2C)CC1 (stereo not given)
637 | CCOc1ccc(-c2n[nH]c3c2C(c2ccc(O)c(OC)c2)NC3=O)cc1 (stereo not given)
928 | O=c1c2cnn(Cc3ccccc3F)c2ncn1Cc1cccc(C(F)(F)F)c1

RP-LC retention time [s] | Structure (SMILES)
920 | CC1CCN(c2cc(-n3cnc(C(=O)N4CCCCC4)c3)ncn2)CC1
720 | Nc1nc2c(C(F)(F)F)cccc2s1
681 | CCN(CC)C(=O)C1CCCN(C(=O)c2nn(C)c3c2CN(C(=O)C2CCC2)CC3)C1 (stereo not given)
1160 | CCCN1C(=O)COc2ccc(-c3noc(-c4cncc(Br)c4)n3)cc21
715 | CCn1c(=O)n(CCc2ccccc2)c2cncnc21
654 | COc1cccc(CNC(=O)N2CCCC(Cn3cnc4cccnc43)C2)c1 (stereo not given)
557 | O=C1CCCN1CCCNc1ccc2nnc(CCC(=O)N3CCN(c4ccccn4)CC3)n2n1
562 | CCN1CCN(CCNC(=O)C2Cn3cccc3C(=O)N2CC(C)C)CC1 (stereo not given)
644 | CCC(=O)N1CCC([C@H]2[C@@H](OC)C(=O)N2C(C)C)CC1
1130 | N#Cc1c(N)nc(SCc2csc(-c3ccc(Cl)cc3)n2)c(C#N)c1-c1ccc(OCCO)cc1
561 | CCC(=O)NCc1nc2c(n1CC)CN(S(=O)(=O)c1ccccc1F)CC2
552 | Cn1c(=O)c2c(nc3n(CCN4CCOCC4)c(C(C)(C)C)cn23)n(C)c1=O
942 | Cc1cc(NC(=O)c2cnc3c(c2)c(=O)n(C)c(=O)n3-c2ccccc2)ccc1F
728 | O=C(Nc1cn(-c2ccc(C(=O)N3CCN(c4ccccc4)CC3)cc2)cn1)C1CC1
662 | CCn1ccc(C(=O)N2CCC[C@H]2c2nc(-c3ccccc3)n[nH]2)n1
880 | CCCn1cc(C(=O)NC(C)CC)c2nn(-c3ccccc3)c(=O)c-2c1 (stereo not given)
1190 | COc1ccc(N2CCN(c3cc(SCC(=O)Nc4cccc(Cl)c4F)ncn3)CC2)cc1
958 | Cc1nc(C(=O)Nc2ccc(F)c(Cl)c2)c(C)o1
1050 | Brc1ccc(OCc2nnc3sc(-c4ccccc4)nn23)cc1
777 | CCN1CCC[C@H]1CNC(=O)c1c(O)c(Cl)cc(Cl)c1OC
714 | O=C(Nc1cnn(-c2ncncc2N2CCOCC2)c1)c1ccc(C(F)(F)F)cc1
579 | COc1ccc(N2C(=O)CC(N3CCC(C)CC3)C2=O)cc1 (stereo not given)
1350 | COc1ccc(Cl)cc1NS(=O)(=O)c1cc(-c2nc(C(C)(C)C)cs2)cs1

RP-LC retention time [s] | Structure (SMILES)
1310 | Cc1ccc(-c2nc(-c3ccc4oc(C)nc4c3)no2)c(C)c1
806 | CC(=O)Nc1nsc(N2CCC(C(=O)N3CCN(c4cccc(C)c4C)CC3)CC2)n1
1250 | COc1cc(NC(=O)c2c(O)c3cccnc3n(-c3ccccc3)c2=O)cc(OC)c1
764 | CC(C)NC(=O)c1nsc(C(=O)N2CCN(c3ncccn3)CC2)c1N
672 | COc1ccc(SCC(=O)Nc2nnc(-c3ccno3)o2)cc1
826 | Cc1cc(-c2nnc(-c3ccco3)o2)c(C)n1CC(=O)NCc1ccccc1
1180 | COc1cccc(-n2c(=O)c(C(=O)NC(C)c3ccccc3)c(O)c3cccnc32)c1 (stereo not given)
700 | CCN(CC)C(=O)c1ccc(-c2nc3cc(NS(=O)(=O)c4ccc(C)cc4)ccc3n2C)cc1
595 | COc1ccc(NC(=O)Cn2nc3n(c2=O)CCCC3)cc1OC
1020 | Cc1ccccc1CNC(=O)C1(C)CCCN(C(=O)Nc2ccccc2Br)C1 (stereo not given)
1030 | Fc1ccc(OCc2nnc3sc(-c4ccc(Cl)cc4)nn23)cc1
847 | Cc1ccc(N2CCC(NC(=O)c3cccc(C#N)c3)C2=O)cc1C (stereo not given)
1290 | CCc1ccccc1NS(=O)(=O)c1cc(-c2nc(C(C)(C)C)cs2)cs1
956 | CN(C)C(=O)[C@H](O)[C@H](Cc1ccccc1)NC(=O)c1cc2cc(Cl)ccc2[nH]1
632 | COc1cc(CNC(=O)CCc2c(-c3ccc(F)cc3)nc3ccccn23)cc(OC)c1OC
844 | O=C(C1=CN(c2ccc(F)cc2)c2cc(Cl)ccc2S1(=O)=O)N1CCCC1
846 | CCc1noc(NC(C)=O)c1-c1ccc(OC)c(S(=O)(=O)Nc2cc(C)ccc2C)c1
722 | CCc1cccc(NC(=O)Cn2nc3n(c2=O)CCCCC3)c1
740 | CC(C)(C)C(O)CCNC(=O)C(=O)NCc1ccccc1 (stereo not given)
895 | Cc1ccccc1C(C(=O)NC1CCCCC1)N(C(=O)Cn1ccnc1C)c1cccc(F)c1 (stereo not given)
1000 | CCc1cc(=O)n(CC(=O)NCc2ccc3c(c2)OCO3)c(-c2ccccc2)n1
